The text below walks through data of patent publication US4410546A, “Antiallergic compositions” (Hisamitsu Pharmaceutical Co., Inc., priority 1981, dated 1983).

Data set [1] relates to homologous passive cutaneous anaphylaxis. Put plainly: Homologous passive cutaneous anaphylaxis (Homolog. PCA) in rats. In kind it is in vivo, rat (male Wistar strain). The note with it: 200 mg/kg oral, 2 hours prior to antigen; for inhibition at 200 mg/kg: Rattus norvegicus. The source says: In accordance with the experimental method of Tada, T et al (J. Immunol., 106, 1002, 1971), a homologous passive cutaneous anaphylaxis (Homolog. PCA) reaction test was made on male Wistar strain rats, each weighing 160-170 g. In this test, DNP-As (Dinitrophenol coupled Ascaris suum extract) was obtained by reacting dinitrophenol (DNP) with protein extracted from Ascaris suum and was used as the antigen. Anti-DNP-As rats serum was prepaed using said antigen and was used as the antibody. […] After the lapse of 48 hours, the test animals were each given 1.0 ml of the antigen solution (2.0 mg as the amount of protein) containing 0.25% Evans blue by intravenous injection thereinto. Thirty (30) minutes later, they were sacrificed by exsanguination and their skins were peeled to measure the area of PCA blueing lesion. The amounts of dye extravasated were each measured in accordance with the method proposed by Harada, M. et al (J. Pharm. Pharmacol., 23, 218, 1971).
The compounds of the formula (I) were orally administered at a dose of 200 mg/kg to the rats two hours prior to the administration of the antigen thereto.

Data set [2] relates to lung fragment of guinea pigs. Put plainly: Histamine release on lung fragment of guinea pigs. In kind it is cell-based, guinea pig. The note with it: sodium salt, induced by ovalbumin 10^-6 g/ml. The procedure: The lungs of guinea pigs sensitized actively by ovalbumin were thoroughly irrigated by Tyrode's solution and then cut to obtain about 1-2 mm thick pieces. Two hundred (200) mg of the thus obtained fragments were accurately weighed out, immersed in Tyrode's solution and preincubated at 37° C. for 5 minutes. Then, the compounds of the formula (I) were each suspended in saline solution containing 0.5% of tragacanth gum, incubated at 37° C. for 20 minutes and induced by 10^-6 g/ml of ovalbumin.
Following 20 minutes' incubation, the siolutin was chilled in ice and then measured for the amount of released histamine in the medium and remaining in the tissue by the use of fluorometric assay in accordance with the Shore et al's method (J. Pharmacol. exp. Ther. 127, 182, 1959).

Data set [3] relates to reversed cutaneous anaphylaxis. Nature of the data set: Reversed cutaneous anaphylaxis test on rats. The class given is in vivo, rat (male Wistar strain). As to conditions: 100 mg/kg oral, one hour prior to anti-rat rabbit serum; for inhibition at 100 mg/kg: 1 h, read-out: Inhibition rate. How it is done: In accordance with Yamazaki et al's method (Folia Pharmacol. Jap. 60, .sctn.65, 1964) obtained by improving Ungar et al's method (Arch. intern. Pharmacodyn. 123, 71, 1959), male Wistar strain rats, each weighing about 100 g, were tested as follows.
First of all, anti-rat rabbit serum was dissolved in such an amount in an 0.5% solution of Evans blue as to obtain a 15% solution of the serum. The thus obtained serum solution was injected intradermally in an 0.05 ml dose into each of 2 sites on one side of the back of each of the rats, while an 0.5% solution of Evans blue in saline solution was also injected similarly in an 0.05 ml dose into each of 2 sites on one side of the back thereof. Two hours later, the test animals were sacrificed and their skins were peeled. The skins so peeled were punched as the indication of the Evans blue spot to separate the edema (swollen) portions thereof which were then measured for their weights.
The strength of intumescence was calculated from the following formula: [formula] wherein Wi is the weight of the inflammatory portion and Ws is the weight of the control portion.
The antiallergic compounds of the formula (I) according to this invention were orally administered at a dose of 100 mg/kg to the rats one hour prior to the injection of the anti-rat rabbit serum.

The test system of the next data set is mesenteric mast cells. Nature of the data set: Test for the degranulation of mesenteric mast cells in rats. The note with it: 10^-4 g/ml; induced by 5×10^-6 g/ml DNP-As. In kind it is cell-based, rat. The procedure:
Rats were passively sensitized at their abdominal cavity by anti-DNP-As rat serum, 24 hours after which the mesenterium of the rats was enucleated. Then, 100 mg of the mesenterium were accurately weighed out, immersed in Tyrode's solution and preincubated at 37° C. for 5 minutes. Thereafter, the immersed solution was added to the antiallergic compounds of the formula (I) suspended in saline solution containing 0.5% of tragacanth gum, incubated at 37° C. for 20 minutes and then induced by 5×10^-6 g/ml of DNP-As. After 20 minutes' incubation, the solution was chilled in ice, and the mesenterium so reacted was dyed by the use of formalin (10% formaldehyde content) and an 0.1% tolwdine blue solution containing 0.1% of acetic acid, treated with ethanol and xylene and measured for degranulation by mirror inspection ([…]).

The nature of the next data set: Acute toxicity test. The note with it: mouse, in vivo; oral, mice, death in 3 weeks. How it is done: The compounds (of the formula (I)) to be tested were each suspended in a saline solution containing 0.5% of tragacanth gum and then orally administered to 6 ddY strain mice in a group, each mouse weighing 20-25 g. LD50 values were calculated from the death of mice in 3 weeks following the administration.

The mark [4] stands for this setting: amount of dye, read-out: Inhibition rate (amount of dye extravasated).
Setting [5] is: area, read-out: Inhibition rate (area of dye extravasated).

By inhibition is commonly meant how much of the control response was suppressed. Broadly, the LD50 is the dose at which mortality reaches 50%. Low readings indicate greater toxicity, high ones lower toxicity.

Like-named read-outs stand apart in the source and are kept apart here.

For the compound `CCCC[C@H]1CC[C@H](C(=O)O)CC1` [Compound 1, trans-4-n-butylcyclohexanecarboxylic acid], in data set [1], the “Amount of dye extravasated” value worked out at 5.17 ± 0.32 μg/site and the “Area of dye extravasated” value worked out at 76.87 ± 2.68 mm^2. In data set [1] (setting [4]), the inhibition at 200 mg/kg was 64%. Further, the inhibition at 200 mg/kg in data set [1] (setting [5]) was 22.4%. In data set [2] (Conc.: 10^-4 g/ml), the “Inhibition rate (histamine release)” value came out at 83.9%. The “Inhibition rate (histamine release)” value in data set [2] (Conc.: 10^-5 g/ml) is 9.2%. Further, in data set [3], the Intumescence rate amounted to 29.81 ± 7.17% and the inhibition at 100 mg/kg stood at 30%. Further, the Degranulation rate with mesenteric mast cells came to 71.45 ± 5.85%. Besides, in the data set “Acute toxicity test”, the LD50 at 504 h was more than 2000 mg/kg.

With `CCCCC[C@H]1CC[C@H](C(=O)O)CC1` [Compound 2, trans-4-n-pentylcyclohexanecarboxylic acid], in data set [1], the “Amount of dye extravasated” value came to 2.49 ± 0.29 μg/site and the “Area of dye extravasated” value is 67.20 ± 2.57 mm^2. For the same compound, in data set [1] (setting [4]), the inhibition at 200 mg/kg was found to be 82.7%. Further, the inhibition at 200 mg/kg in data set [1] (setting [5]) was determined as 32.2%. Moreover, the “Inhibition rate (histamine release)” value in data set [2] (Conc.: 10^-4 g/ml) turned out to be 92.2%. The “Inhibition rate (histamine release)” value in data set [2] (Conc.: 10^-5 g/ml) is 83.4%. For the same compound, in data set [3], the Intumescence rate is 25.00 ± 2.77% and the inhibition at 100 mg/kg turned out to be 41.3%. Besides, the Degranulation rate with mesenteric mast cells is 74.96 ± 2.91%. Moreover, in the data set “Acute toxicity test”, the 50% lethal dose (LD50) at 504 h was more than 2000 mg/kg.
